Test results from patent US20240124460A1, “METHODS AND COMPOSITIONS FOR TARGETED PROTEIN DEGRADATION” (Ranok Therapeutics (Hangzhou) Co. Ltd., priority 2020, published 2024).
Read-outs that look alike come from different tables or passages of the source.

Key:
[1] = test system: MV-4-11 human acute myeloid leukemia; test: MV-4-11 CCK-8 proliferation assay; assay type: cell-based; conditions: MV-4-11 cells, 72 hr
In short: (§1)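 Cells cultured per ATCC recommendations and treated with 3-fold serial dilutions of compound from 20 μM to 1.02 nM. Viability by CCK-8 absorbance; % inhibition computed relative to DMSO-treated cells, with cell-free medium plus DMSO as blank.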

[2] = test system: U-87 MG human glioblastoma; test: U87 MG CCK-8 proliferation assay; assay type: cell-based; conditions: U-87 MG cells, read-out: U87MG CCK-8
In short: as §1

HSP90α protein [3] = molecular target: T1, HSP90α protein (Homo sapiens, UniProt P07900); test: HSP90α-binding FP (BODIPY) assay; conditions: FP competition with BODIPY-labeled RNK04010
T1 construct: purchased BPS Bioscience #50298
In short: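 Fluorescence polarization measured competition with N-terminal human HSP90α, using either FITC-geldanamycin or BODIPY-labelled triazolone RNK04010 as tracer (5 nM final each). Compounds were tested in 2.5-fold dilutions from 20 μM to 5.2 nM, with incubation at 25 °C for 120 min (FITC) or 300 min (BODIPY).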

MAPK7 [4] = molecular target: T2, MAPK7 (Homo sapiens, UniProt Q13164); test: MAPK7 kinase assay (ADP-Glo); assay type: biochemical; set-up: purchased Carna Biosciences #04-146; conditions: ATP 340 μM
T2 sequence (Q13164 whole entry): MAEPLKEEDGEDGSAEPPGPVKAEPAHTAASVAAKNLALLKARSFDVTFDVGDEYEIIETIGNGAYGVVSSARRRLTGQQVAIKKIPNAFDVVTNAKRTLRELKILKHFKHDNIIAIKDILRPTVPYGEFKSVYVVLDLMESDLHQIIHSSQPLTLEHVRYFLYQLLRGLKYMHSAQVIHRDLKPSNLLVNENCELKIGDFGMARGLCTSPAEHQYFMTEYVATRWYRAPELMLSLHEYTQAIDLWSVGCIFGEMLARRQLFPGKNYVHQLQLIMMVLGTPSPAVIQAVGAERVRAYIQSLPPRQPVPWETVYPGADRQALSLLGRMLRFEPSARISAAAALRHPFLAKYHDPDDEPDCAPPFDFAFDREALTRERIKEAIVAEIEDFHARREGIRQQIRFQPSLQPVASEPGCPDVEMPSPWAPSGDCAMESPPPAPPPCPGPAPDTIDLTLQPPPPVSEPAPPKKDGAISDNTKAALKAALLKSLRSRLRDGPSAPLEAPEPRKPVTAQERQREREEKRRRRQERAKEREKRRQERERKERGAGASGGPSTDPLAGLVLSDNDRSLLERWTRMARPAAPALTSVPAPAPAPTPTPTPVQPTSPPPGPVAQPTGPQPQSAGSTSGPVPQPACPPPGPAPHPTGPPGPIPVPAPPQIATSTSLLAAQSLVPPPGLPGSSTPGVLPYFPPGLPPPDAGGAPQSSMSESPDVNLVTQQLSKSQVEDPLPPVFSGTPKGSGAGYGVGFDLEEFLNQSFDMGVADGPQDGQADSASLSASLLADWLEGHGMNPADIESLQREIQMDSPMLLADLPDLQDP
Description: The inhibition of MAPK7 kinase activity by test compounds was measured by the ADP-Glo Kinase Assay (Promega, #V6930), following the manufacturer's instructions, except as noted. 3-fold serial dilutions of each test compound were prepared ranging from 50 μM to 2.54 nM. Also, as a positive control, a 4-fold serial dilution of the MAPK7 inhibitor, XMD17-109 (MedChemExpress, #HY-15665) was prepared ranging from 10 μM to 0.04 nM. In brief, in 384-well plates, test compounds were added to the kinase reaction mix containing recombinant MAPK7 protein (Carna Biosciences, #04-146; 20 nM final concentration), myelin basic protein (SignalChem Biotech, #M42-54G; 0.1 mg/ml final concentration) and ATP (340 μM final concentration), then mixed by shaking and incubated with ADP-Glo Reagent and Kinase Detection Reagent. Luminescence was measured on a BioTek plate reader.
Lumpositive: The average ratio for 10 wells of positive controls (10 μM XMD17-109) across the plate.
Lumvehicle: The average ratio for 10 wells of negative controls (0.5% DMSO) across the plate.

ERBB2 = ERBB2 (HER2) flow cytometry protein degradation assay in BT-474 cells; assay type: cell-based, human; conditions: DC50, BT-474 cells, 24 hr
In short: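 BT-474 cells trypsinised after compound treatment and stained with PE-conjugated anti-ERBB2 antibody, 30 min at 25° C in the dark, then fixed in 1% paraformaldehyde for flow cytometry. % inhibition = 100−(D−B)/(S−B)*100, using treated, untreated-stained and unstained cell fluorescence.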

HSP90α protein [5] = molecular target: T1, HSP90α protein; test: HSP90α-binding FP (FITC) assay; conditions: FP competition with FITC-geldanamycin
Description: Binding of test compounds to HSP90α protein was measured by fluorescent polarization (FP) using the HSP90α (N-terminal) Assay Kit (BPS Bioscience, #50298), following the manufacturer's instructions, except as noted. Fluorescently labeled HSP90-binding compounds, either the provided FITC-geldanamycin (5 nM final concentration) or RNK04010, a triazolone-based HSP90 binding small molecule labeled with BODIPY through a piperazine-phenyl linker (5 nM final concentration) were employed. A 2.5-fold serial dilution of each test compound ranging from 20 μM to 5.2 nM was assayed for binding to HSP90α. After the final step of adding HSP90α protein to each assay well, plates were mixed by brief shaking, incubated at 25° C. for 120 min for FITC-geldanamycin or 300 min for RNK04010, and fluorescence was measured using a PerkinElmer EnVision Plate Reader.

MAPK7 [6] = molecular target: T2, MAPK7; test: MAPK7 Western blot protein degradation assay in U-87 MG cells; assay type: cell-based; set-up: U-87 MG human glioblastoma cells, which express MAPK7; endogenous in cells; host or cells: U-87 MG; conditions: 48 hr
Description: U-87 MG human glioblastoma cells were seeded in 6- or 12-well tissue culture plates, and after 1 hr, test compounds were added at various concentrations and incubated at 37° C./5% CO2 for 48 hr. Cells were then washed with cold PBS, aspirated and cold RIPA buffer containing a protease/phosphatase inhibitor cocktail was added to lyse cells. After centrifugation, the total protein concentrations of cell lysates were determined using the BCA protein assay. Samples were normalized for equivalent protein concentrations, 5×SDS-PAGE loading buffer added and denatured at 100° C. for 10 min. 20 μl of each sample/well was loaded on a SDS-PAGE gel and electrophoresed for 20 min at 80 V, then 120 V for 1.5 hr. Gels were then electroblotted to nitrocellulose membranes using a wet-transfer method at 250 mA for 2.5 hr. Membranes were incubated with blocking buffer for 1 hr and washed 3 times with TBST for 5 min. Membranes were then incubated with anti-MAPK7 (anti-ERK5; Cell Signaling Technology, #12950) and anti-3-Actin (Cell Signaling Technology, #3700) monoclonal antibodies diluted in blocking buffer at 4° C. overnight per the manufacturer's recommendations. After washing 3 times, blots were incubated with appropriately labeled secondary antibodies for 1 hr at room temperature and washed again. Fluorescence imaging and quantitation was performed using a LI-COR Odyssey. Results was analyzed using GraphPad Prism 7 software.

## (1R,4R)-4-((2-((12-azanylidene)-l3-methyl)-5-(6,6-dimethyl-4-oxo-3-(trifluoromethyl)-4,5,6,7-tetrahydro-1H-indazol-1-yl)phenyl)amino)cyclohexyl (2-(2-(1-(3-ethoxy-4-(ethyl(5-methyl-11-(methylsulfonyl)-6-oxo-6,11-dihydro-5H-benzo[e]pyrimido[5,4-b][1,4]diazepin-2-yl)amino)phenyl)piperidine-4-carboxamido)ethoxy)ethyl)carbamate [Compound 113]
[1]
  EC50: > 1000 nM
[2]; 72 hr
  EC50: > 1000 nM
HSP90α protein [3]
  IC50: > 1000 nM
MAPK7 [4]
  IC50: > 1000 nM

## CCOc1cc(N2CCC(OCC(=O)NCCOCCN3CCN(Cc4ccc(-n5c(O)nnc5-c5cc(C(C)C)c(O)cc5O)cc4)CC3)CC2)ccc1Nc1ncc2c(n1)N(C)c1ccccc1C(=O)N2C [Compound 002, N-(2-(2-(4-(4-(3-(2,4-dihydroxy-5-isopropylphenyl)-5-hydroxy-4H-1,2,4-triazol-4-yl)benzyl)piperazin-1-yl)ethoxy)ethyl)-2-((1-(4-((5,11-dimethyl-6-oxo-6,11-dihydro-5H-benzo[e]pyrimido[5,4-b][1,4]diazepin-2-yl)amino)-3-ethoxyphenyl)piperidin-4-yl)oxy)acetamide]
[1]; Homo sapiens, MV4-11
  EC50: < 100 nM
ERBB2
  ERBB2 degradation: B (DC50 = 100-1000 nM)
[2]; Homo sapiens, U-87 MG, 72 h
  EC50: 100 to 1000 nM
HSP90α protein [5]
  IC50: < 100 nM

## CCOc1cc(N2CCC(C(=O)NCCOCc3ccc(-n4c(O)nnc4-c4cc(C(C)C)c(O)cc4O)cc3)CC2)ccc1Nc1ncc2c(n1)N(C)c1ccccc1C(=O)N2C [Compound 005, N-(2-((4-(3-(2,4-dihydroxy-5-isopropylphenyl)-5-hydroxy-4H-1,2,4-triazol-4-yl)benzyl)oxy)ethyl)-1-(4-((5,11-dimethyl-6-oxo-6,11-dihydro-5H-benzo[e]pyrimido[5,4-b][1,4]diazepin-2-yl)amino)-3-ethoxyphenyl)piperidine-4-carboxamide]
[1]; Homo sapiens, MV4-11
  EC50: < 100 nM
ERBB2
  ERBB2 degradation: B (DC50 = 100-1000 nM)
MAPK7 [6]; 30 nM
  MAPK7 degradation (30 nM): C (< 33% degradation)
MAPK7 [6]; 100 nM
  MAPK7 degradation (100 nM): C (< 33% degradation)
MAPK7 [6]; 1000 nM
  MAPK7 degradation (1000 nM): A (>66% degradation)
[2]; Homo sapiens, U-87 MG, 72 h
  EC50: < 100 nM
HSP90α protein [5]
  IC50: 100 to 1000 nM

## (1R,4R)-4-((2-cyano-5-(6,6-dimethyl-4-oxo-3-(trifluoromethyl)-4,5,6,7-tetrahydro-1H-indazol-1-yl)phenyl)amino)cyclohexyl (2-(2-(1-(4-((5,11-dimethyl-6-oxo-6,11-dihydro-5H-benzo[e]pyrimido[5,4-b][1,4]diazepin-2-yl)amino)-3-ethoxyphenyl)piperidine-4-carboxamido)ethoxy)ethyl)carbamate [Compound 109]
[1]
  EC50: > 1000 nM
[2]; 72 hr
  EC50: > 1000 nM
HSP90α protein [3]
  IC50: > 1000 nM
MAPK7 [4]
  IC50: > 1000 nM

## CCOc1cc(N2CCC(C(=O)N3CCC(COc4ccc(Nc5cc(-n6nc(C(F)(F)F)c7c6CC(C)(C)CC7=O)ccc5C(N)=O)cc4)CC3)CC2)ccc1Nc1ncc2c(n1)N(S(C)(=O)=O)c1ccccc1C(=O)N2C [Compound 110, 4-(6,6-dimethyl-4-oxo-3-(trifluoromethyl)-4,5,6,7-tetrahydro-1H-indazol-1-yl)-2-((4-((1-(1-(3-ethoxy-4-((5-methyl-11-(methylsulfonyl)-6-oxo-6,11-dihydro-5H-benzo[e]pyrimido[5,4-b][1,4]diazepin-2-yl)amino)phenyl)piperidine-4-carbonyl)piperidin-4-yl)methoxy)phenyl)amino)benzamide]
[1]; Homo sapiens, MV4-11
  EC50: > 1000 nM
[2]; Homo sapiens, U-87 MG, 72 h
  EC50: > 1000 nM
HSP90α protein [3]
  IC50: > 1000 nM
MAPK7 [4]
  IC50: > 1000 nM

## CCOc1cc(N2CCC(C(=O)N3CCC(CN4CCN(Cc5ccc(-n6c(O)nnc6-c6cc(C(C)C)c(O)cc6O)cc5)CC4)CC3)CC2)ccc1N(CC)c1ncc2c(n1)N(C)c1ccccc1C(=O)N2C [Compound 133, 2-((4-(4-(4-((4-(4-(3-(2,4-dihydroxy-5-isopropylphenyl)-5-hydroxy-4H-1,2,4-triazol-4-yl)benzyl)piperazin-1-yl)methyl)piperidine-1-carbonyl)piperidin-1-yl)-2-ethoxyphenyl)(ethyl)amino)-5,11-dimethyl-5,11-dihydro-6H-benzo[e]pyrimido[5,4-b][1,4]diazepin-6-one]
[1]; Homo sapiens, MV4-11
  EC50: < 100 nM
[2]; Homo sapiens, U-87 MG, 72 h
  EC50: 100 to 1000 nM
HSP90α protein [3]
  IC50: < 100 nM
MAPK7 [4]
  IC50: > 1000 nM

## CCNC(=O)c1nnc(-c2cc(CC)c(O)cc2O)n1-c1ccc(CN2CCN(CC3CCN(C(=O)C4CCN(c5ccc(N(CC)c6ncc7c(n6)N(S(C)(=O)=O)c6ccccc6C(=O)N7C)c(OCC)c5)CC4)CC3)CC2)cc1 [Compound 135, 4-(4-((4-((1-(1-(3-ethoxy-4-(ethyl(5-methyl-11-(methylsulfonyl)-6-oxo-6,11-dihydro-5H-benzo[e]pyrimido[5,4-b][1,4]diazepin-2-yl)amino)phenyl)piperidine-4-carbonyl)piperidin-4-yl)methyl)piperazin-1-yl)methyl)phenyl)-N-ethyl-5-(5-ethyl-2,4-dihydroxyphenyl)-4H-1,2,4-triazole-3-carboxamide]
[1]; Homo sapiens, MV4-11
  EC50: < 100 nM
[2]; Homo sapiens, U-87 MG, 72 h
  EC50: 100 to 1000 nM
HSP90α protein [3]
  IC50: < 100 nM
MAPK7 [4]
  IC50: > 1000 nM

## CCOc1cc(N2CCC(C(=O)N3CCC(CN4CCN(Cc5ccc(-n6c(C(=O)NC(C)C(F)(F)F)nnc6-c6cc(CC)c(O)cc6OC)cc5)CC4)CC3)CC2)ccc1Nc1ncc2c(n1)N(S(C)(=O)=O)c1ccccc1C(=O)N2C (stereo not drawn) [Compound 142, 4-(4-((4-((1-(1-(3-ethoxy-4-((5-methyl-11-(methylsulfonyl)-6-oxo-6,11-dihydro-5H-benzo[e]pyrimido[5,4-b][1,4]diazepin-2-yl)amino)phenyl)piperidine-4-carbonyl)piperidin-4-yl)methyl)piperazin-1-yl)methyl)phenyl)-5-(5-ethyl-4-hydroxy-2-methoxyphenyl)-N-(1,1,1-trifluoropropan-2-yl)-4H-1,2,4-triazole-3-carboxamide]
MAPK7 [4]
  IC50: 100 to 1000 nM

## CCOc1cc(N2CCC(C(=O)NCCOc3cccc(CN(C)Cc4ccc(-n5c(O)nnc5-c5cc(C(C)C)c(O)cc5O)cc4)c3)CC2)ccc1Nc1ncc2c(n1)N(C)c1ccccc1C(=O)N2C [Compound 007, N-(2-(3-(((4-(3-(2,4-dihydroxy-5-isopropylphenyl)-5-hydroxy-4H-1,2,4-triazol-4-yl)benzyl)(methyl)amino)methyl)phenoxy)ethyl)-1-(4-((5,11-dimethyl-6-oxo-6,11-dihydro-5H-benzo[e]pyrimido[5,4-b][1,4]diazepin-2-yl)amino)-3-ethoxyphenyl)piperidine-4-carboxamide]
[1]; Homo sapiens, MV4-11
  EC50: < 100 nM
ERBB2
  ERBB2 degradation: B (DC50 = 100-1000 nM)
[2]; Homo sapiens, U-87 MG, 72 h
  EC50: 100 to 1000 nM
HSP90α protein [5]
  IC50: 100 to 1000 nM
